Test results published in US20130316990A1, “USE OF VITAMIN D COMPOUNDS” (DSM IP ASSETS B.V., priority 2003, published 2013).
Marks after values point to notes of the source that are not given here.

Columns and labels:
weaner piglets = experiment: Bone strength (Newton at the breaking point) in weaner piglets fed supplemented diet, Example 2; format: in vivo; settings: for Strength - femur: mean ± SD of 8 determinations
Experimental: Weaner piglets of an initial body weight of 8.4±1.2 kg were fed a diet based on maize, barley and soybean meal ad libitum for 33 days. Groups of 31 animals each were fed as follows:
A: basal diet+1,000 IU/kg vitamin D3
B: basal diet+2,000 IU/kg vitamin D3
C: basal diet +40 μg/kg 25-hydroxy vitamin D3 (Hy.D® 1.25% Beadlet, Roche Vitamins AG, Basel, Switzerland)
D: basal diet+1,000 IU/kg vitamin D3+20 μg/kg 25-hydroxy vitamin D3 (Hy. D® 1.25% Beadlet, Roche Vitamins AG, Basel, Switzerland).
(§1) The effects of the addition of 25-hydroxy vitamin D3 and vitamin D3 to the diet were determined by measuring the strength (Newton at the breaking point) of the bones of the animals.

growing-fattening pigs = experiment: Bone strength (Newton at the breaking point) in growing-fattening pigs fed supplemented diet, Example 1; format: in vivo; settings: for Strength - metacarpals and metatarsals, relative to group A (100) / Strength - metacarpals, relative to group A (100) / Strength - metatarsals, relative to group A (100): unmedicated basal diet = 100; for Strength - metacarpals / Strength - metatarsals: mean ± SD of 8 determinations; for Strength - metacarpals and metatarsals: mean ± SD of 16 determinations
Experimental: Growing-fattening pigs of an initial body weight of 64.8±5.03 kg were fed a diet based on maize, barley and soybean meal ad libitum for 34 days. Groups of 16 animals each were fed as follows:
A: basal diet (unmedicated),
B: basal diet+1,200 IU/kg vitamin D3
C: basal diet+30 μg/kg 25-hydroxy vitamin D3 (Hy.D® 1.25% Beadlet, Roche Vitamins AG, Basel, Switzerland)
D: basal diet+600 IU/kg vitamin D3+15 μg/kg 25-hydroxy vitamin D3 (Hy.D® 1.25% Beadlet, Roche Vitamins AG, Basel, Switzerland).
as §1

[1] = group B: 1,200 IU/kg vitamin D3, 34 days
[2] = group B: basal diet+1,200 IU/kg vitamin D3, 34 days
[3] = group C: 30 μg/kg 25-hydroxy vitamin D3, 34 days
[4] = group C: basal diet+30 μg/kg 25-hydroxy vitamin D3, 34 days

SMILES	Strength - femur, relative to group A (100) (weaner piglets; group A: 1,000 IU/kg vitamin D3, 33 days, reference group = 100)	Strength - femur, relative to group A (100) (weaner piglets; group B: 2,000 IU/kg vitamin D3, 33 days, 1,000 IU/kg vitamin D3 group = 100)	Strength - femur (weaner piglets; group B: basal diet+2,000 IU/kg vitamin D3, 33 days)	Strength - metacarpals and metatarsals, relative to group A (100) (growing-fattening pigs; [1])	Strength - metacarpals, relative to group A (100) (growing-fattening pigs; [1])	Strength - metatarsals, relative to group A (100) (growing-fattening pigs; [1])	Strength - metacarpals (growing-fattening pigs; [2])	Strength - metatarsals (growing-fattening pigs; [2]) [Newton]	Strength - metacarpals and metatarsals (growing-fattening pigs; [2])	Strength - femur, relative to group A (100) (weaner piglets; group C: 40 μg/kg 25-hydroxy vitamin D3, 33 days, 1,000 IU/kg vitamin D3 group = 100)	Strength - femur (weaner piglets; group C: basal diet+40 μg/kg 25-hydroxy vitamin D3 (Hy.D 1.25% Beadlet), 33 days)	strength of the bones of the growing-finishing pig (in words) (growing-fattening pigs; Example 1, addition to diet, 34 days)	Strength - metacarpals and metatarsals, relative to group A (100) (growing-fattening pigs; [3])	Strength - metacarpals, relative to group A (100) (growing-fattening pigs; [3])	Strength - metatarsals, relative to group A (100) (growing-fattening pigs; [3])	Strength - metacarpals (growing-fattening pigs; group C: basal diet+30 μg/kg 25-hydroxy vitamin D3 (Hy.D 1.25% Beadlet), 34 days)	Strength - metatarsals (growing-fattening pigs; [4]) [Newton]	Strength - metacarpals and metatarsals (growing-fattening pigs; [4])
C=C1CC[C@H](O)C/C1=C/C=C1\CCC[C@]2(C)[C@@H]([C@H](C)CCCC(C)C)CC[C@@H]12 [vitamin D3]	(100)	(109)	873 ± 123^ab Newton	(107)	(109)	(105)	463 ± 48^ce Newton	553 ± 169	508 ± 113^ac Newton									
C=C1CC[C@H](O)C/C1=C/C=C1\CCC[C@]2(C)[C@@H]([C@H](C)CCCC(C)(C)O)CC[C@@H]12 [25-hydroxy vitamin D3]										(100)	803 ± 82^a Newton	clearly improved	(112)	(123)	(103)	520 ± 72^df Newton	545 ± 105	533 ± 88^ac Newton
